# Measurements as given in patent US20030149021A1, “Piperazine mono(dithio)carbamate ester compounds and analogs thereof: preparation method and uses thereof” (Medinox, Inc., priority 2001, published 2003).
# Key:
# [1] = Preliminary acute toxicity in mice; type: in vivo
# Mouse sarcoma 180 (S180) = assay: Anticancer activity against implanted mouse sarcoma 180 (S180), tumor weight; type: in vivo, mice; conditions: for Inhibition (%) (% reduction in tumor mass): S180 in mice, tumor harvested at day 12
# Method: Animals: Kuiming mice 18-22 g were provided by the animal department of Bejing Medical University. ICR mice were provided by Beijing Weitonglihua Experiemental Animal Technology, Inc. Each experiment used the same number of male mice and female mice.
# Tumor cell line: Mouse sarcoma 180 (S180) was provided by the pharmaceutical group of National Key Laboratory of Natural and Mimic Medicine.
# Compound 42 was prepared by the School of Pharmaceutical Sciences of Peking University. Cyclophosphoramide was purchased from Shanghai Hualian Pharmaceutical, Inc.
# Tumor was removed from the mouse abdominal cavity. The tumor was diluted to 5×10^6/ml and implanted to the left axilla subcutaneously (0.2 ml per mouse) under sterile conditions. Twenty four (24) hours after implantation, animals were divided into two groups (10 mice per group), either 42 or cyclophosphoramide was given orally to animals once a day for 10 days.
# At day 12, the tumor was harvested and the average tumor weight of each group was calculated.
SMILES,toxicity (in words) [1],"No of Death ([1]; mice, dose 10 G/kg, 20 animals at start)",inhibition against S180 (in words) (Mouse sarcoma 180 (S180)),Inhibition (%) (% reduction in tumor mass) (Mouse sarcoma 180 (S180); 100 mg/kg orally once a day for 10 days),Inhibition (%) (% reduction in tumor mass) (Mouse sarcoma 180 (S180); 500 mg/kg orally once a day for 10 days),Inhibition (%) (% reduction in tumor mass) (Mouse sarcoma 180 (S180); 30 mg/kg orally once a day for 10 days)
"CN1CCN(C(=S)SCCC(C#N)(c2ccccc2)c2ccccc2)CC1.Cl [Compound 42, 4-Methyl-piperazine-1-carbodithioc acid 3-cyano-3,3-diphenyl-propyl ester hydrochloride]",low toxicity,0,significant inhibition,74,80,
"O=P1(N(CCCl)CCCl)NCCCO1 (stereo not drawn) [Cyclophosphoramide, reference compound]",,,,,,73
